The source made the active and inactive calls. The rule behind the calls is not given here.
How the values were obtained:
[1] = Cytotoxicity against human PC3 cells assessed as growth inhibition after 48 hrs by SRB assay; type: functional, cell-based; conditions: PC-3, 48 h
[2] = Induction of reactive oxygen species in human MDA-MB-231 cells at 10 uM after 24 hrs by DCFH-DA probe-based flow cytometric method; type: physicochemical, cell-based; conditions: mda-mb-231, 24 h
[3] = target: T1, Serine/threonine-protein kinase Chk1/2 (Homo sapiens) (UniProt O96017+O14757); test: Induction of CHK1/2 phosphorylation in human MDA-MB-231 cells assessed as increase in p53 phosphorylation at 10 uM after 6 to 24 hrs by Western blot method; type: cell-based
[4] = system: MDA-MB-231; test: Binding affinity to DNA minor groove in human MDA-MB-231 cells up to 100 uM after 20 mins by Hoechst 33342 staining-based fluorometric method; type: cell-based
[5] = target: T1, Serine/threonine-protein kinase Chk1/2 (Homo sapiens); test: Induction of CHK1/2 phosphorylation in human MDA-MB-231 cells assessed as increase in p21 protein expression at 10 uM after 6 to 24 hrs by Western blot method; type: cell-based
[6] = target: Serine/threonine-protein kinase Chk2 (Homo sapiens) (UniProt O96017); test: Induction of CHK2 phosphorylation in human MDA-MB-231 cells at 10 uM after 6 to 24 hrs by Western blot method; type: cell-based
[7] = target: T2, Serine/threonine-protein kinase Chk1 (Homo sapiens) (UniProt O14757); test: Induction of CHK1 phosphorylation in human MDA-MB-231 cells at 10 uM after 6 to 24 hrs by Western blot method; type: cell-based
T2 sequence (whole entry): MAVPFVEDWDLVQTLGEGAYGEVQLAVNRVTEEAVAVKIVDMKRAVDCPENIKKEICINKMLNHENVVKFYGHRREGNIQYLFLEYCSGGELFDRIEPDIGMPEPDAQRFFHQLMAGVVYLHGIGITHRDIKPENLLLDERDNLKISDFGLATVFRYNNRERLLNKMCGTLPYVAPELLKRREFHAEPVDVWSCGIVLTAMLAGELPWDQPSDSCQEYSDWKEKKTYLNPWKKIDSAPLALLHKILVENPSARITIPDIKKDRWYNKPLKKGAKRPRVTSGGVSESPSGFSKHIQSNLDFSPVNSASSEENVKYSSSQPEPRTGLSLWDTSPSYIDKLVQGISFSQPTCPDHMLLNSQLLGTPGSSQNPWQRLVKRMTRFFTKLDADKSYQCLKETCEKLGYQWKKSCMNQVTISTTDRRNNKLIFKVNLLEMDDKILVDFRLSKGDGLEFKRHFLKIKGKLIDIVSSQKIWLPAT

[8] = Cytotoxicity against human IMR90 cells assessed as growth inhibition up to 40 uM after 24 to 48 hrs by MTT assay; type: toxicity, cell-based; conditions: imr-90
[9] = Cytotoxicity against human T47D cells assessed as growth inhibition after 24 to 48 hrs by MTT assay; type: functional, cell-based
[10] = system: MDA-MB-231; test: Induction of apoptosis in human MDA-MB-231 cells assessed as PARP cleavage by flow cytometric method; type: functional, cell-based
[11] = target: Serine-protein kinase ATM (Homo sapiens) (UniProt Q13315); test: Induction of ATM phosphorylation in human MDA-MB-231 cells at 10 uM after 6 to 24 hrs by Western blot method; type: cell-based
[12] = system: MDA-MB-231; test: Induction of DNA damage in human MDA-MB-231 cells assessed as phosphorylation of gammaH2AX at IC50 to 3 times IC50 after 48 hrs by flow cytometric analysis; type: functional, cell-based
[13] = Cell cycle arrest in human MDA-MB-231 cells assessed as accumulation at S phase at 32 uM after 6 to 12 hrs by propidium iodide staining-based flow cytometric method; type: functional
[14] = Cytotoxicity against human MCF7 cells assessed as growth inhibition after 24 to 48 hrs by MTT assay; type: functional, cell-based
[15] = Cytotoxicity against human MDA-MB-231 cells assessed as growth inhibition after 24 to 48 hrs by MTT assay; type: functional, cell-based
[16] = Induction of reactive oxygen species in human MDA-MB-231 cells at 30 uM after 24 hrs by DCFH-DA probe-based flow cytometric method; type: physicochemical, cell-based; conditions: mda-mb-231, 24 h

T1 sequence (O96017 whole entry, looked up, one chain of several): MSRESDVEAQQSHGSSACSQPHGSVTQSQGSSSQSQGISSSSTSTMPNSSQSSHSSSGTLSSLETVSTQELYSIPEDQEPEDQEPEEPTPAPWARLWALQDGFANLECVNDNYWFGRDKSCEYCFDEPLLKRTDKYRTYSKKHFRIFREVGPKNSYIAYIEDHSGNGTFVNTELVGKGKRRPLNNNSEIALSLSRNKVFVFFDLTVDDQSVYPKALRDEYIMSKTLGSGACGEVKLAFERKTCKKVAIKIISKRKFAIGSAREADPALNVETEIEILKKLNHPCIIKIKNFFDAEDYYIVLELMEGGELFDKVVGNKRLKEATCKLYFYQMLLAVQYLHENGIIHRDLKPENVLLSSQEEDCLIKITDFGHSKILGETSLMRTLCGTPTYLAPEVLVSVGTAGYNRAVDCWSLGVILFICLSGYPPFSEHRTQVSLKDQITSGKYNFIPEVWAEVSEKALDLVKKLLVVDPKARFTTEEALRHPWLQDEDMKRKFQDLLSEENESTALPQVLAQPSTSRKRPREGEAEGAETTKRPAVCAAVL
Serine-protein kinase ATM (Homo sapiens), sequence (Q13315 whole entry): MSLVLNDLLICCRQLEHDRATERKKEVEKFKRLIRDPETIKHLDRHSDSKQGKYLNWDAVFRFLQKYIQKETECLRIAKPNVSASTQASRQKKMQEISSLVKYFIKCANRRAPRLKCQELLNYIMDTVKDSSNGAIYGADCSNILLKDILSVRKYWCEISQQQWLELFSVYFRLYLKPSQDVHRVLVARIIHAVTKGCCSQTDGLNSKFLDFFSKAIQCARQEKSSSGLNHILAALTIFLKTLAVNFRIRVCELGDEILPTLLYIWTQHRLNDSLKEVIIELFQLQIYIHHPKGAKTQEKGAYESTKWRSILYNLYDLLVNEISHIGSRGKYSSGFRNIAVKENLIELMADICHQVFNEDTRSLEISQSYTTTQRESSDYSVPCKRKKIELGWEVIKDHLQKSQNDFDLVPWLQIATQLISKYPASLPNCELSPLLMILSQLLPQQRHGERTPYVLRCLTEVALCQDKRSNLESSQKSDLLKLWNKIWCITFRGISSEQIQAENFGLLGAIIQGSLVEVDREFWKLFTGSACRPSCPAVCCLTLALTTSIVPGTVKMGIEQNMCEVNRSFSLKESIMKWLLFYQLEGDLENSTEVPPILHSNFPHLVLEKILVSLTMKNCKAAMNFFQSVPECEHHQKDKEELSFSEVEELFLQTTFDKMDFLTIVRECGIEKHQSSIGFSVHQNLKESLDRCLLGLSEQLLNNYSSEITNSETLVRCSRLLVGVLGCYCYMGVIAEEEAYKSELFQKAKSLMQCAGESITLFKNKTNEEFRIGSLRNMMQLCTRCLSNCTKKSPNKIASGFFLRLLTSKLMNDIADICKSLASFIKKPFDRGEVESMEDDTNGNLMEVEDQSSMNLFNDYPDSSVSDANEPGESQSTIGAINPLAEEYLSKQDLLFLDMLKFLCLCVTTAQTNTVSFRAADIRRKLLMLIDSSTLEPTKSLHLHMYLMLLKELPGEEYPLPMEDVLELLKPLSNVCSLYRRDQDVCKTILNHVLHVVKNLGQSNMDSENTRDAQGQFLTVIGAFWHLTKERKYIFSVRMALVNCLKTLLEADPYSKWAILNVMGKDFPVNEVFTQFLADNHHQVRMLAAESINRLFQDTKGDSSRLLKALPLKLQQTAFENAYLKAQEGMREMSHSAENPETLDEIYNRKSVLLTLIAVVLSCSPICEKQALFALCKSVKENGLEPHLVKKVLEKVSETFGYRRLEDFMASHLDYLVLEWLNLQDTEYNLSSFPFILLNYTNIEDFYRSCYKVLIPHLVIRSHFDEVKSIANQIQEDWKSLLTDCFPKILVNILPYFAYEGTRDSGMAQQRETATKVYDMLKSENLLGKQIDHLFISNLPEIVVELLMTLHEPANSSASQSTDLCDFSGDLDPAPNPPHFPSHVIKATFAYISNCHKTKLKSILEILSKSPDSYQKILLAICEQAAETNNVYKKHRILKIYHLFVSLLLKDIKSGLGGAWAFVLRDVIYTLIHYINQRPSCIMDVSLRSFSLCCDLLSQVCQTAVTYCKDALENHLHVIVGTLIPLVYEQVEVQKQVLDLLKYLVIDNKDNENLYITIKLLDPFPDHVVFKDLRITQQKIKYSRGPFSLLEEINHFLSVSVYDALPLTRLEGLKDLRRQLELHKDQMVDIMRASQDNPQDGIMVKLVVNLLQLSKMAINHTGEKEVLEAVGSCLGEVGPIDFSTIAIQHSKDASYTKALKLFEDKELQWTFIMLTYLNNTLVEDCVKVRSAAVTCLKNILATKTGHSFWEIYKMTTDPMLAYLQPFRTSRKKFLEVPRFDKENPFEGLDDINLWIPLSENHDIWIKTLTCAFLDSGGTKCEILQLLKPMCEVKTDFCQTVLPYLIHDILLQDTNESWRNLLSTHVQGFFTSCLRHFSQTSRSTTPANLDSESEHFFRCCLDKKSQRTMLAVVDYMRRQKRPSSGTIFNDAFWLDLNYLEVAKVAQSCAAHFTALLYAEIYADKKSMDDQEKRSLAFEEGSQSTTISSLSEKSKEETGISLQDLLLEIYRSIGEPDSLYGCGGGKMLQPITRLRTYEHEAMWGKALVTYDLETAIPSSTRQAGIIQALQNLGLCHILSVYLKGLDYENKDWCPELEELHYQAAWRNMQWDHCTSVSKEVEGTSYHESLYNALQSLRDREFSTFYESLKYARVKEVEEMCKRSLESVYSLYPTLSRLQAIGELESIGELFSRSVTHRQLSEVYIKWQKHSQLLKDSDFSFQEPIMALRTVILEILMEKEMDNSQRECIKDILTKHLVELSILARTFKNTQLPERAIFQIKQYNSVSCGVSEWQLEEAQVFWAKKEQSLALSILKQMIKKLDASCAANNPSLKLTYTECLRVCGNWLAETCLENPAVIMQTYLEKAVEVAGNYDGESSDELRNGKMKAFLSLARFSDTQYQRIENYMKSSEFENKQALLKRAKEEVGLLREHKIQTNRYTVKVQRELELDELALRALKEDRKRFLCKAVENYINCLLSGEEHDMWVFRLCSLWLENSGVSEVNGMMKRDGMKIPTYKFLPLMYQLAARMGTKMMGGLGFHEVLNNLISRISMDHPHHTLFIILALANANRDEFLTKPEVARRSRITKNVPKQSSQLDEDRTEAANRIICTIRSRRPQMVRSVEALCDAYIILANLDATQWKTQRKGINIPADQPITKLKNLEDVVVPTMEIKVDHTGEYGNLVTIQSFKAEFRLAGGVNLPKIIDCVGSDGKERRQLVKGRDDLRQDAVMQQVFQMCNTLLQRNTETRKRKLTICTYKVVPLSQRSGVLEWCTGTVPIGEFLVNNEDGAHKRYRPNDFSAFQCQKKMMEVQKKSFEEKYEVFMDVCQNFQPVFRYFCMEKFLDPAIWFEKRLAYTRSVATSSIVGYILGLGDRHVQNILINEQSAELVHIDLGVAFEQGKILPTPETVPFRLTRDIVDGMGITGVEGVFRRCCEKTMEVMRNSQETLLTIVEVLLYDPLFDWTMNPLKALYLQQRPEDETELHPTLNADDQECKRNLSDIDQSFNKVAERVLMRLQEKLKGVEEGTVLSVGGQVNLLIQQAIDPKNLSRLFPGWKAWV
Serine/threonine-protein kinase Chk2 (Homo sapiens), sequence (O96017 whole entry): as the sequence (O96017 whole entry, looked up, one chain of several) above

| Structure (SMILES) | IC50 [1] [µM] | Activity [2] | also measured |
| --- | --- | --- | --- |
| CC[C@H](C)C(=O)O[C@H]1C[C@@H](C)C=C2C=C[C@H](C)[C@H](CC[C@@H](O)C[C@@H](CC(=O)NO)OC(C)=O)[C@H]21 | 11.4 | Active | – |
| CC[C@H](C)C(=O)O[C@H]1C[C@@H](C)C=C2C=C[C@H](C)[C@H](CC[C@@H](O)C[C@@H](CC(=O)NO)OC(=O)c3ccccc3)[C@H]21 | 3.3 | Active | Activity [3]: Active; Activity [4]: Active; Activity [5]: Active; Activity [6]: Active; Activity [7]: Active; Activity [8]: Non-Toxic; IC50 [9]: 30 to 40 µM; Activity [10]: Dose-dependent effect; Activity [11]: Active; Activity [12]: Active; Activity [13]: Active; IC50 [14]: 30 to 40 µM; IC50 [15]: 30 to 40 µM |
| C[C@H]1C=C2C=C[C@H](C)[C@H](CC[C@@H](O)C[C@H](O)CC(=O)NO)[C@H]2[C@@H](O)C1 | > 30 | Active | – |
| CC[C@H](C)C(=O)O[C@H]1C[C@@H](C)C=C2C=C[C@H](C)[C@H](CC[C@@H](O)C[C@@H](CC(=O)NO)OC(=O)c3ccc([N+](=O)[O-])cc3)[C@H]21 | 8.2 | Active | – |
| CC[C@H](C)C(=O)O[C@H]1C[C@@H](C)C=C2C=C[C@H](C)[C@H](CC[C@@H]3C[C@@H](O)CC(=O)O3)[C@H]21 [LOVASTATIN] | 5.4 | – | Activity [3]: Active; IC50 [9]: > 40 µM; Activity [11]: Active; Activity [16]: Active; IC50 [14]: > 40 µM; IC50 [15]: > 40 µM |
| CC[C@H](C)C(=O)O[C@H]1C[C@@H](C)C=C2C=C[C@H](C)[C@H](CC[C@@H](O)C[C@@H](CC(=O)NO)OC(=O)CCc3ccccc3)[C@H]21 | 6.2 | Active | – |
| CC[C@H](C)C(=O)O[C@H]1C[C@@H](C)C=C2C=C[C@H](C)[C@H](CC[C@@H](O)C[C@@H](CC(=O)NO)OC(=O)c3ccc(Cl)cc3)[C@H]21 | 21.7 | Active | – |
| CC[C@H](C)C(=O)O[C@H]1C[C@@H](C)C=C2C=C[C@H](C)[C@H](CC[C@@H](O)C[C@@H](CC(=O)NO)OC(=O)c3ccc4ccccc4c3)[C@H]21 | 17.3 | Active | – |
| CC[C@H](C)C(=O)O[C@H]1C[C@@H](C)C=C2C=C[C@H](C)[C@H](CC[C@@H](O)C[C@@H](CC(=O)NO)OC(=O)C(C)(C)C)[C@H]21 | 7.2 | Active | – |
| CC[C@H](C)C(=O)O[C@H]1C[C@@H](C)C=C2C=C[C@H](C)[C@H](CC[C@@H](O)C[C@@H](CC(=O)NO)OC(=O)Cc3ccccc3)[C@H]21 | 5.8 | Active | – |
| CC[C@H](C)C(=O)O[C@H]1C[C@@H](C)C=C2C=C[C@H](C)[C@H](CC[C@@H](O)C[C@@H](CC(=O)NO)OC(=O)c3ccc(OC(F)(F)F)cc3)[C@H]21 | 20.3 | Active | – |
